Consider one compound from patent publication US20230372427A1, “THE COMPOSITIONS OF PLANT INGREDIENTS AND HERBS AGAINST CORONAVIRUS” (priority 2022, published 2023).

Molecules are shown by their SMILES.

This assay deals with wild-type SARS-CoV-2 pseudotyped lentivirus (WT-GFP-SARS-CoV-2-pseudotyped lentivirus). Nature of the assay: microbe, parasite or virus in culture. It is filed as cell-based. As to conditions: HEK-293T, 72 h, read-out: inhibitory effect (viral entry), positive control.

Regarding `CCN(CC)CCCC(C)Nc1ccnc2cc(Cl)ccc12` (stereo not shown) [chloroquine, Chloroquine], the inhibition at 0.5 µg/mL was about 70%.
